{"source": "the supplement of paper PMC10307832", "test_in_all_cases": "relative viability (nuclei count vs DMSO), 5 days (fraction); higher = more cells survive", "key": {"ChaGo-K-1": {"test_system": "ChaGo-K-1", "in_short": "(§1)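 Lung cancer cell lines were pin-tool dosed in 1536-well plates on the day after seeding, with either a lone drug or a fixed anchor-drug dose plus five library-drug doses (not always all listed) in √10 steps. Nuclei were counted on 4× images after 5 days. Relative viability is the ratio of treated-well to vehicle-well nuclei counts, with each value a median of duplicate plates.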"}, "EKVX": {"test_system": "EKVX", "in_short": "as §1"}, "EMC-BAC-2": {"test_system": "EMC-BAC-2", "in_short": "as §1"}, "H3255": {"test_system": "H3255", "in_short": "as §1"}, "HARA": {"test_system": "HARA", "in_short": "as §1"}, "HCC-15": {"test_system": "HCC-15", "in_short": "as §1"}, "HCC-827": {"test_system": "HCC-827", "in_short": "as §1"}, "LC-2-ad": {"test_system": "LC-2-ad", "in_short": "as §1"}, "LCLC-97TM1": {"test_system": "LCLC-97TM1", "in_short": "as §1"}, "LU99A": {"test_system": "LU99A", "in_short": "as §1"}, "NCI-H1437": {"test_system": "NCI-H1437", "in_short": "as §1"}, "NCI-H1792": {"test_system": "NCI-H1792", "in_short": "as §1"}, "NCI-H1793": {"test_system": "NCI-H1793", "in_short": "as §1"}, "NCI-H1915": {"test_system": "NCI-H1915", "in_short": "as §1"}, "NCI-H1944": {"test_system": "NCI-H1944", "in_short": "as §1"}, "NCI-H2126": {"test_system": "NCI-H2126", "in_short": "as §1"}, "NCI-H23": {"test_system": "NCI-H23", "in_short": "as §1"}, "NCI-H322M": {"test_system": "NCI-H322M", "in_short": "as §1"}, "NCI-H441": {"test_system": "NCI-H441", "in_short": "as §1"}, "NCI-H460": {"test_system": "NCI-H460", "in_short": "as §1"}, "NCI-H522": {"test_system": "NCI-H522", "in_short": "as §1"}, "NCI-H661": {"test_system": "NCI-H661", "in_short": "as §1"}, "PC-3 [JPC-3]": {"test_system": "PC-3 [JPC-3]", "in_short": "as §1"}, "SK-LU-1": {"test_system": "SK-LU-1", "in_short": "as §1"}, "SW 900": {"test_system": "SW 900", "in_short": "as §1"}}, "data": [{"smiles": "CCCCCCCCCCCC1=C(O)C(=O)C=C(O)C1=O", "note": "[Embelin] + Nc1ncn([C@H]2C[C@H](O)[C@@H](CO)O2)c(=O)n1 [Decitabine] (partner 2 µM)", "values": [{"measurement": "relative viability", "setting": "ChaGo-K-1; first compound 0.08 µM", "result": 0.523}, {"measurement": "relative viability", "setting": "ChaGo-K-1; first compound 0.8 µM", "result": 0.531}, {"measurement": "relative viability", "setting": "ChaGo-K-1; first compound 2.53 µM", "result": 0.507}, {"measurement": "relative viability", "setting": "ChaGo-K-1; first compound 8 µM", "result": 0.484}, {"measurement": "relative viability", "setting": "EKVX; first compound 0.08 µM", "result": 0.41}, {"measurement": "relative viability", "setting": "EKVX; first compound 0.8 µM", "result": 0.4}, {"measurement": "relative viability", "setting": "EKVX; first compound 2.53 µM", "result": 0.314}, {"measurement": "relative viability", "setting": "EKVX; first compound 8 µM", "result": 0.313}, {"measurement": "relative viability", "setting": "EMC-BAC-2; first compound 0.08 µM", "result": 0.945}, {"measurement": "relative viability", "setting": "EMC-BAC-2; first compound 0.8 µM", "result": 1.01}, {"measurement": "relative viability", "setting": "EMC-BAC-2; first compound 2.53 µM", "result": 0.958}, {"measurement": "relative viability", "setting": "EMC-BAC-2; first compound 8 µM", "result": 0.955}, {"measurement": "relative viability", "setting": "H3255; first compound 0.08 µM", "result": 0.502}, {"measurement": "relative viability", "setting": "H3255; first compound 0.8 µM", "result": 0.783}, {"measurement": "relative viability", "setting": "H3255; first compound 2.53 µM", "result": 0.617}, {"measurement": "relative viability", "setting": "H3255; first compound 8 µM", "result": 0.656}, {"measurement": "relative viability", "setting": "HARA; first compound 0.08 µM", "result": 0.51}, {"measurement": "relative viability", "setting": "HARA; first compound 0.8 µM", "result": 0.549}, {"measurement": "relative viability", "setting": "HARA; first compound 2.53 µM", "result": 0.587}, {"measurement": "relative viability", "setting": "HARA; first compound 8 µM", "result": 0.573}, {"measurement": "relative viability", "setting": "HCC-15; first compound 0.08 µM", "result": 0.619}, {"measurement": "relative viability", "setting": "HCC-15; first compound 0.8 µM", "result": 0.694}, {"measurement": "relative viability", "setting": "HCC-15; first compound 2.53 µM", "result": 0.697}, {"measurement": "relative viability", "setting": "HCC-15; first compound 8 µM", "result": 0.617}, {"measurement": "relative viability", "setting": "HCC-827; first compound 0.08 µM", "result": 0.336}, {"measurement": "relative viability", "setting": "HCC-827; first compound 0.8 µM", "result": 0.333}, {"measurement": "relative viability", "setting": "HCC-827; first compound 2.53 µM", "result": 0.38}, {"measurement": "relative viability", "setting": "HCC-827; first compound 8 µM", "result": 0.355}, {"measurement": "relative viability", "setting": "LC-2-ad; first compound 0.08 µM", "result": 0.788}, {"measurement": "relative viability", "setting": "LC-2-ad; first compound 0.8 µM", "result": 0.79}, {"measurement": "relative viability", "setting": "LC-2-ad; first compound 2.53 µM", "result": 0.795}, {"measurement": "relative viability", "setting": "LC-2-ad; first compound 8 µM", "result": 0.782}, {"measurement": "relative viability", "setting": "LCLC-97TM1; first compound 0.08 µM", "result": 0.241}, {"measurement": "relative viability", "setting": "LCLC-97TM1; first compound 0.8 µM", "result": 0.264}, {"measurement": "relative viability", "setting": "LCLC-97TM1; first compound 2.53 µM", "result": 0.266}, {"measurement": "relative viability", "setting": "LCLC-97TM1; first compound 8 µM", "result": 0.235}, {"measurement": "relative viability", "setting": "LU99A; first compound 0.08 µM", "result": 1.01}, {"measurement": "relative viability", "setting": "LU99A; first compound 0.8 µM", "result": 1.08}, {"measurement": "relative viability", "setting": "LU99A; first compound 2.53 µM", "result": 0.942}, {"measurement": "relative viability", "setting": "LU99A; first compound 8 µM", "result": 0.91}, {"measurement": "relative viability", "setting": "NCI-H1437; first compound 0.08 µM", "result": 0.541}, {"measurement": "relative viability", "setting": "NCI-H1437; first compound 0.8 µM", "result": 0.623}, {"measurement": "relative viability", "setting": "NCI-H1437; first compound 2.53 µM", "result": 0.568}, {"measurement": "relative viability", "setting": "NCI-H1437; first compound 8 µM", "result": 0.41}, {"measurement": "relative viability", "setting": "NCI-H1792; first compound 0.08 µM", "result": 0.603}, {"measurement": "relative viability", "setting": "NCI-H1792; first compound 0.8 µM", "result": 0.595}, {"measurement": "relative viability", "setting": "NCI-H1792; first compound 2.53 µM", "result": 0.615}, {"measurement": "relative viability", "setting": "NCI-H1792; first compound 8 µM", "result": 0.519}, {"measurement": "relative viability", "setting": "NCI-H1793; first compound 0.08 µM", "result": 0.586}, {"measurement": "relative viability", "setting": "NCI-H1793; first compound 0.8 µM", "result": 0.625}, {"measurement": "relative viability", "setting": "NCI-H1793; first compound 2.53 µM", "result": 0.505}, {"measurement": "relative viability", "setting": "NCI-H1793; first compound 8 µM", "result": 0.549}, {"measurement": "relative viability", "setting": "NCI-H1915; first compound 0.08 µM", "result": 0.265}, {"measurement": "relative viability", "setting": "NCI-H1915; first compound 0.8 µM", "result": 0.241}, {"measurement": "relative viability", "setting": "NCI-H1915; first compound 2.53 µM", "result": 0.263}, {"measurement": "relative viability", "setting": "NCI-H1915; first compound 8 µM", "result": 0.264}, {"measurement": "relative viability", "setting": "NCI-H1944; first compound 0.08 µM", "result": 0.436}, {"measurement": "relative viability", "setting": "NCI-H1944; first compound 0.8 µM", "result": 0.406}, {"measurement": "relative viability", "setting": "NCI-H1944; first compound 2.53 µM", "result": 0.5}, {"measurement": "relative viability", "setting": "NCI-H1944; first compound 8 µM", "result": 0.443}, {"measurement": "relative viability", "setting": "NCI-H2126; first compound 0.08 µM", "result": 0.514}, {"measurement": "relative viability", "setting": "NCI-H2126; first compound 0.8 µM", "result": 0.519}, {"measurement": "relative viability", "setting": "NCI-H2126; first compound 2.53 µM", "result": 0.589}, {"measurement": "relative viability", "setting": "NCI-H2126; first compound 8 µM", "result": 0.513}, {"measurement": "relative viability", "setting": "NCI-H23; first compound 0.08 µM", "result": 0.258}, {"measurement": "relative viability", "setting": "NCI-H23; first compound 0.8 µM", "result": 0.37}, {"measurement": "relative viability", "setting": "NCI-H23; first compound 2.53 µM", "result": 0.329}, {"measurement": "relative viability", "setting": "NCI-H23; first compound 8 µM", "result": 0.29}, {"measurement": "relative viability", "setting": "NCI-H322M; first compound 0.08 µM", "result": 0.603}, {"measurement": "relative viability", "setting": "NCI-H322M; first compound 0.8 µM", "result": 0.729}, {"measurement": "relative viability", "setting": "NCI-H322M; first compound 2.53 µM", "result": 0.813}, {"measurement": "relative viability", "setting": "NCI-H322M; first compound 8 µM", "result": 0.754}, {"measurement": "relative viability", "setting": "NCI-H441; first compound 0.08 µM", "result": 0.221}, {"measurement": "relative viability", "setting": "NCI-H441; first compound 0.8 µM", "result": 0.268}, {"measurement": "relative viability", "setting": "NCI-H441; first compound 2.53 µM", "result": 0.198}, {"measurement": "relative viability", "setting": "NCI-H441; first compound 8 µM", "result": 0.237}, {"measurement": "relative viability", "setting": "NCI-H460; first compound 0.08 µM", "result": 0.455}, {"measurement": "relative viability", "setting": "NCI-H460; first compound 0.8 µM", "result": 0.511}, {"measurement": "relative viability", "setting": "NCI-H460; first compound 2.53 µM", "result": 0.577}, {"measurement": "relative viability", "setting": "NCI-H460; first compound 8 µM", "result": 0.254}, {"measurement": "relative viability", "setting": "NCI-H522; first compound 0.08 µM", "result": 0.647}, {"measurement": "relative viability", "setting": "NCI-H522; first compound 0.8 µM", "result": 0.617}, {"measurement": "relative viability", "setting": "NCI-H522; first compound 2.53 µM", "result": 0.578}, {"measurement": "relative viability", "setting": "NCI-H522; first compound 8 µM", "result": 0.704}, {"measurement": "relative viability", "setting": "NCI-H661; first compound 0.08 µM", "result": 0.565}, {"measurement": "relative viability", "setting": "NCI-H661; first compound 0.8 µM", "result": 0.614}, {"measurement": "relative viability", "setting": "NCI-H661; first compound 2.53 µM", "result": 0.649}, {"measurement": "relative viability", "setting": "NCI-H661; first compound 8 µM", "result": 0.541}, {"measurement": "relative viability", "setting": "PC-3 [JPC-3]; first compound 0.08 µM", "result": 0.776}, {"measurement": "relative viability", "setting": "PC-3 [JPC-3]; first compound 0.8 µM", "result": 0.882}, {"measurement": "relative viability", "setting": "PC-3 [JPC-3]; first compound 2.53 µM", "result": 0.919}, {"measurement": "relative viability", "setting": "PC-3 [JPC-3]; first compound 8 µM", "result": 0.821}, {"measurement": "relative viability", "setting": "SK-LU-1; first compound 0.08 µM", "result": 0.617}, {"measurement": "relative viability", "setting": "SK-LU-1; first compound 0.8 µM", "result": 0.683}, {"measurement": "relative viability", "setting": "SK-LU-1; first compound 2.53 µM", "result": 0.709}, {"measurement": "relative viability", "setting": "SK-LU-1; first compound 8 µM", "result": 0.641}, {"measurement": "relative viability", "setting": "SW 900; first compound 0.08 µM", "result": 0.449}, {"measurement": "relative viability", "setting": "SW 900; first compound 0.8 µM", "result": 0.402}, {"measurement": "relative viability", "setting": "SW 900; first compound 2.53 µM", "result": 0.466}, {"measurement": "relative viability", "setting": "SW 900; first compound 8 µM", "result": 0.454}]}]}
